# From US20120189706A1, “Macrocystis Pyrifera Derived Health and Wellness Products and Methods of Using the Same” (Knocean Sciences, Inc., priority 2009, published 2012)
# Key:
# [1] = tested on: CEM-SS cells
# [2] = tested on: HIV-1 strain IIIB; test: HIV-1 Cytoprotection assay; format: cell-based
# [3] = tested on: HSV-1 strain HF; test: HSV Cytoprotection assay; format: cell-based
# Description: The HSV Cytoprotection assay uses Vero cells and HSV-1 strain HF or HSV-2 strain MS. […] Each assay includes acyclovir (ACV) as a positive control. […] The standard viruses used for this assay are HSV-1 strain HF and HSV-2 strain MS (other viruses available upon request). […] For each assay, a pre-titered aliquot of virus is removed from the freezer (−80° C.) and allowed to thaw slowly to room temperature in a biological safety cabinet. The virus is resuspended and diluted into tissue culture medium such that the amount of virus added to each well is the amount determined to give between 85 to 95% cell killing at 5 days post-infection.
# [4] = Compound cytotoxicity in HSV Cytoprotection assay (MTS); format: cell-based; conditions: African green monkey (Cercopithecus aethiops), Vero cells (uninfected, cells plus compound only), read-out: TC50
# [5] = tested on: MRC-5 cells; test: Compound cytotoxicity in Rhinovirus Cytoprotection assay (MTS); format: cell-based, Human; conditions: 7 days
# Description: The Rhinovirus Cytoprotection assay uses MRC-5 cells and Rhinovirus strains 1B, 14, or 26. […] Each assay includes enviroxime (ENV) as a positive control.
# [6] = tested on: Rhinovirus strain 1B; test: Rhinovirus Cytoprotection assay in MRC-5 cells; format: cell-based
# Description: (§1) The Rhinovirus Cytoprotection assay uses MRC-5 cells and Rhinovirus strains 1B, 14, or 26. […] Each assay includes enviroxime (ENV) as a positive control. […] The viruses used for this assay are Rhinovirus strains 1B, 14, or 26. […] For each assay, a pre-titered aliquot of virus is removed from the freezer (−80° C.) and allowed to thaw slowly to room temperature in a biological safety cabinet. The virus is resuspended and diluted into tissue culture medium such that the amount of virus added to each well is the amount determined to give between 85 to 95% cell killing at 6-7 days post-infection.
# [7] = tested on: Vero E6 cells; test: Compound cytotoxicity in Dengue Virus Cytoprotection assay (MTS); conditions: 7 days
# [8] = tested on: RSV strain Long; test: Respiratory Syncytial Virus (RSV) Cytoprotection assay; format: cell-based; conditions: human respiratory syncytial virus, 168 h, A549 cells, 7 days
# Description: as §1, with “Respiratory Syncytial Virus (RSV)” for “Rhinovirus”, “A549” for “MRC-5”, “RSV strain Long.” for “Rhinovirus strains 1B, 14, or 26.”, “ribavirin (RBV)” for “enviroxime (ENV)”, “virus” for “viruses”, “is RSV strain Long.” for “are Rhinovirus strains 1B, 14, or 26.”
# [9] = tested on: Coxsackie A strain A7; test: Coxsackie A virus Cytoprotection assay; format: cell-based; conditions: MRC5, 168 h, MRC-5 cells, 7 days
# Description: The Coxsackie A virus Cytoprotection assay uses MRC-5 cells and Coxsackie A strains A7 or A21. […] Each assay includes ribavirin (RBV) as a positive control. […] The viruses used for this assay are Coxsackie A strains A7 or A21. […] For each assay, a pre-titered aliquot of virus is removed from the freezer (−80° C.) and allowed to thaw slowly to room temperature in a biological safety cabinet. The virus is resuspended and diluted into tissue culture medium such that the amount of virus added to each well is the amount determined to give between 85 to 95% cell killing at 7 days post-infection.
# [10] = tested on: Influenza A strain A/Victoria/3/75 (H3N2); test: Influenza A Cytoprotection assay; format: cell-based; conditions: Influenza A virus, H3N2, 168 h, MDCK cells, 7 days
smiles,measurement,setting,value
Cc1cn([C@H]2C[C@H](N=[N+]=[N-])[C@@H](CO)O2)c(=O)[nH]c1=O [AZT],CC50,[1],> 1 µM
same,IC50,"[2]; HIV-1 Strain IIIB, CEM-SS cells, 6 days",0.172 µM
same,Antiviral Index,"[2]; TC50/IC50, HIV-1",>5.83
"Nc1nc2c(ncn2COCCO)c(=O)[nH]1 [Acyclovir, acyclovir]",IC50,"[3]; Human alphaherpesvirus 1, 120 h, HSV-1 Strain HF, Vero cells, 5 days",6.92 µM
same,Antiviral Index,"[3]; TC50/IC50, HSV-1",>14.5
same,CC50 at 5 days,[4],> 100 µM
"CC(C)S(=O)(=O)n1c(N)nc2ccc(/C(=N/O)c3ccccc3)cc21 [Enviroxime, enviroxime]",TC50,[5],>10 µg/mL
same,IC50,"[6]; Enterovirus, MRC5, 168 h, Rhinovirus Strain 1B, MRC-5 cells, 7 days",0.485 µg/mL
same,Antiviral Index,"[6]; TC50/IC50, Rhinovirus",>20.6
"NC(=O)c1ncn([C@@H]2O[C@H](CO)[C@@H](O)[C@H]2O)n1 [Ribavirin, ribavirin]",TC50,[7],>200 µg/mL
same,IC50,[8],12.2 µg/mL
same,IC50,[9],7.04 µg/mL
same,IC50,[10],4.45 µg/mL
